We go through four molecules from BindingDB's records for doi:10.1016/j.bioorg.2013.11.005 (Sastra University, 2014).

For one assay, the target named is Angiogenin (Homo sapiens, UniProt P03950). The assay can be described thus: Inhibition Kinetics with Angiogenin. As to conditions: pH 6. The procedure: The assay was carried out in oligovinylsulfonic acid free 0.1 M Mes-NaOH buffer (pH 6.0) containing 0.1 M NaCl using substrate concentration from 20 to 122 nM. The concentration of compounds 2, 3, 4 and 5 ranged from 0 to 0.8, 0 to 1.2, 0 to 1.2 and 0 to 2.5 mM, respectively. The angiogenin concentration was 0.36 µM.

Assay [1] addresses Ribonuclease pancreatic (Bos taurus) (UniProt P61823).

Chain of Ribonuclease pancreatic (Bos taurus) (P61823 whole entry, looked up): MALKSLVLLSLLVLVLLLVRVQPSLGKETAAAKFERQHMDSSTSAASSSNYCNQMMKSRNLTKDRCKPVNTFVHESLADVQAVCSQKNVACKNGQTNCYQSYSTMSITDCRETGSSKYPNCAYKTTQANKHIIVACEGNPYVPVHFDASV
Chain of Angiogenin (P03950 whole entry): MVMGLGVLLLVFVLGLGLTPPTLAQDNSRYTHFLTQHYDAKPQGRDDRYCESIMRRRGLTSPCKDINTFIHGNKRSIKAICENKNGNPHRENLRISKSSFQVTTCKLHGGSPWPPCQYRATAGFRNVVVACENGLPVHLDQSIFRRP

`Cc1cn([C@H]2C[C@@H](NC(=O)CC(=O)O)[C@@H](CO)O2)c(=O)[nH]c1=O` [N-[2-Hydroxymethyl-5-(5-methyl-2,4-dioxo-3,4-dihydro-2H-pyrimidin-1-yl)-tetrahydro-furan-3-yl]-malonamic acid (Compound 6)]: the inhibition constant (Ki) (as a rule, the equilibrium dissociation constant of an inhibitor or competing ligand from its target) at Angiogenin stood at 1110 µM; in assay [1], 380 µM.
Consider `Cc1cn([C@H]2C[C@@H](NC(=O)C(=O)O)[C@@H](CO)O2)c(=O)[nH]c1=O` [N-[2-Hydroxymethyl-5-(5-methyl-2,4-dioxo-3,4-dihydro-2H-pyrimidin-1-yl)-tetrahydro-furan-3-yl]-oxalamic acid (Compound 5)], for which the Ki on Angiogenin came out at 775 µM; in assay [1], 132 µM.
Turning to `Cc1cn([C@H]2C[C@@H](NC(=O)C(N)CO)[C@@H](CO)O2)c(=O)[nH]c1=O` (stereo partly drawn) [Ser-aT (Compound 2)], the Ki turned out to be 427 µM at Angiogenin and 80 µM in assay [1].
The matching figures for `Cc1cn([C@H]2C[C@@H](NC(=O)C(N)Cc3ccc(O)cc3)[C@@H](CO)O2)c(=O)[nH]c1=O` (stereo partly drawn) [Tyr-aT (Compound 3)]: 1250 µM and 451 µM.
